Results as given in patent USRE38962E1, “Diphenyl-triazole derivatives and their use as anti-gestative immuno-suppressant and anti-tumoral agents” (Geange Ltd., priority 1997, dated 2006).
Marks after values point to notes of the source that are not given here.

What was measured:
S.D. Rats = assay: Pregnancy termination activity in S.D. rats after a single subcutaneous injection at day 7 of gestation; type: in vivo, Sprague Dawley rats; conditions: single subcutaneous injection on day 7 of gestation; for ED50: Rattus norvegicus, sc, autopsy day 16, read-out: ED50 (dose terminating pregnancy, absence of live foetuses, in 50% of treated animals); for ED50 (dose terminating pregnancy in 50% of treated animals): autopsy day 16
Procedure: In particular, female Sprague Dawley rats weighing 200-230 g. were mated and the presence of sperm was detected, was considered day one of pregnancy.
Pregnancy was later confirmed at the time of autopsy by the presence of implantation sites in the uterus.
Test compounds dissolved in sesame oil containing 20% benzyl benzoate (or suspended if insoluble), were administered subcutaneously, in a single injection, on day 7 of gestation. The animals were then autopsied on day 16 of pregnancy and the uteri were examined for evidence of pregnancy (implantation sites, foetal resorption or live foetuses), haemorrhage, and evidence of abnormalities of the uterus, placenta or foetuses, for reference see G. Galliani et al. Contraception, 23, 163-180 (198).
These values identify the dose levels which terminate pregnancy (absence of live foetuses) in 50% of the treated animals.

Acute toxicity studies = conditions: in vivo
Procedure: Acute toxicity studies did show as the lethal doses of compounds (VI), LD50>500 mg/kg, are of three order of magnitude higher than those anti-gestative.

Beagle bitches = assay: Contragestational effect in Beagle bitches after a single intramuscular dose; type: in vivo; conditions: for Pregnancy arrest (%): single i.m. 5 mg/kg (11.1 μmoles/kg)
Procedure: The compound was given intramuscularly in one depot site of the thigh muscle of the right hind leg dissolved in sesame oil at the dose of 5 mg/kg (11.1 μmoles/kg , […], 0.2 mL/kg). The anti-gestative effectiveness was ascertained by exploratory laparatomy examining uterine horns where the presence of live or dead foetuses was deduced from the dimension and appearance of each uterine swelling, for methodological reference see G. Galliani et al., J. Small Animal Practice, 25, 211-222 (1984).

[1] = system: Sheep Red Blood Cells (SRBC); assay: IgM antibody response to SRBC (direct plaque forming cells in spleen); type: in vivo, B6D2F1 mice; conditions: antigen SRBC, dosing day 0, 8.60 μmoles/Kg/day; vehicle 124 + 18; p < 0.01
Procedure: (§1) In detail, the Antibody Response to Sheep Red Blood Cells (SRBC) and to Lipo-polysaccharide (LPS), was studied in B6D2F1 mice injected intravenously 10^8 SRBC (day 0). Direct (IgM) and indirect (IgG) plaque forming cells (PFC) were evaluated in the spleen 4 and 10 days later, Jerne et al. Science 140, 405 (1963) and Dresser and Wortis, Nature, 208, 859(1965).

[2] = system: Lipo-polysaccharide (LPS); assay: IgM antibody response to LPS (plaque forming cells in spleen); type: in vivo, B6D2F1 mice; conditions: antigen LPS, dosing day 0, 8.60 μmoles/Kg/day; vehicle 10 + 2; p < 0.01
Procedure: as §1
(§2) Indirect PCF were developed with rabbit anti-serum to mouse gamma globulin. B6D2F1 mice were immunised with 20 μg LPS intra-peritoneally. Four days later, PCF were determined in the spleen by SRBC coated with LPS, Moller, Nature, 207, 1166(1965).

[3] = system: Sheep Red Blood Cells (SRBC); assay: IgG antibody response to SRBC (indirect plaque forming cells in spleen); type: in vivo, B6D2F1 mice; conditions: dosing day 0, 2.15 μmoles/Kg/day; vehicle 24 + 3
Procedure: as §1, §2

SRBC = assay: Delayed type hypersensitivity (DTH), footpad swelling; type: in vivo, C57B1/6 mice; conditions: dosing day 0, 3.60 μmoles/Kg/day; vehicle 11.4 + 3.7
Procedure: Delayed Type hypersensitivity (DTH), was carried out in C57B1/6 mice administered subcutaneously 2×10^8 SRBC emulsified in complete Freund's adjuvant. Ten days later an eliciting dose of 10^8 SRBC was inoculated into a footpad. The DTH reaction was recorded 24 hours later by measuring the footpad swelling (Kerckhaert et al, i Cell Immunology, 29, 232, (1977).

[4] = system: grafts of skin from C3H (H-2^k) donor mice; assay: Skin graft survival time (C3H donor onto C57B1/6 recipient); type: in vivo, C57B1/6 mice; conditions: dosing days −1, 7, 17.20 μmols/Kg/day; vehicle 10.7 + 0.4
Procedure: For the Skin Grafting, fitted pinch, grafts of skin from C3H (H-2^k) donor mice were transplanted onto C57B1/6 (H-2^b) recipient mice (Mistrello et al,. 1984) Bandages were removed 7 days later and graft were scored daily by microscopy. Rejection was recorded when no viable epidermis remained. The median survival time (MST) of the grafts, measured as days, was calculated according to Litchfield (1949).

human chorio-carcinoma = assay: Growth of human chorio-carcinoma transplanted into nude mice; type: in vivo

## CCOc1cccc(-c2n[nH]c(-c3ccccc3CO)n2)c1 [D, 5-(2-Hydroxymethylphenyl)-3-(3-ethoxy-phenyl)-1H-1,2,4-triazole, reference compound]
S.D. Rats
  ED50: 16 mg/kg
  ED50 (dose terminating pregnancy in 50% of treated animals): 54.6 µmol/kg

## CCCCCCCCOC(=O)OCc1ccccc1-c1n[nH]c(-c2cccc(OCC)c2)n1 [(VI)]
S.D. Rats
  ED50: 2 mg/kg
  ED50 (dose terminating pregnancy in 50% of treated animals): 4.4 µmol/kg
Acute toxicity studies
  LD50: > 500 mg/kg
Beagle bitches; administered day 15 of gestation
  Pregnancy arrest (%): 80%
Beagle bitches; administered day 20 of gestation
  Pregnancy arrest (%): 100%
Beagle bitches; administered day 25 of gestation
  Pregnancy arrest (%): 100%
Beagle bitches; single intramuscular dose
  Tolerability: very well tolerated
Beagle bitches; single intramuscular dose between day of mating and 25th day of gestation
  Anti-gestative effectiveness: highly effective
[1]
  PCF/spleen.10^−3 (mean = S.D.), IgM response: 12 + 3* PCF/spleen.10^−3
[2]
  PCF/spleen.10^−3 (mean = S.D.), IgM response: 3 + 1* PCF/spleen.10^−3
[3]
  PFC/SPLEEN.10^−3 (mean + S.D.), IgG response to SRBC: 3 + 3* PFC/SPLEEN.10^−3
SRBC
  FOOTPAD SWELLING UNITS (Mean + S.D.), DTH: 5.2 + 1.2** UNITS
[4]
  MST, days (mean ± S. D.), skin graft median survival time: 15.1 + 0.6* days
Human chorio-carcinoma; human chorio-carcinoma transplanted into nude mice
  Potency compared with methotrexate: even higher than that displayed by methotrexate
Human chorio-carcinoma; transplanted into nude mice
  Inhibition of the growth of human chorio-carcinoma: highly effective

## CCCCCCOC(=O)OCc1ccccc1-c1n[nH]c(-c2cccc(OCC)c2)n1 [(XVI)]
S.D. Rats
  ED50: 5 mg/kg
  ED50 (dose terminating pregnancy in 50% of treated animals): 11.8 µmol/kg

## CCCCOC(=O)OCc1ccccc1-c1n[nH]c(-c2cccc(OCC)c2)n1 [(XIV)]
S.D. Rats
  ED50: 8 mg/kg
  ED50 (dose terminating pregnancy in 50% of treated animals): 20.3 µmol/kg

## CCOC(=O)OCc1ccccc1-c1n[nH]c(-c2cccc(OCC)c2)n1 [(XV)]
S.D. Rats
  ED50: 15 mg/kg
  ED50 (dose terminating pregnancy in 50% of treated animals): 27.2 µmol/kg
